Molecular target: T1, PpGRXC5 (Physcomitrium patens, UniProt A0A2K1KTP0)
T1 construct: gene LOC112280307; targeting peptide removed, starts at Ala120 to native stop; Gateway vector pETG-10A, E. coli Rosetta2; tag not described; active site YCPYC
T1 sequence (A0A2K1KTP0 120-228): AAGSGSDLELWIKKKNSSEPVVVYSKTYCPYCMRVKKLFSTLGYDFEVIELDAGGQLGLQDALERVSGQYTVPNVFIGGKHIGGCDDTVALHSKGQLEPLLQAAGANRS
Experiment: HED assay, GR-coupled NADPH oxidation at […] nm
Type: biochemical
Conditions: 0.3-1.5 mM HED varied, 1 mM GSH constant, 200 uM NADPH, yeast GR, 30 nM enzyme, 100 mM Tris-HCl, 1 mM EDTA, pH 7.9; actual substrate is the glutathione-mercaptoethanol mixed disulfide; read-out: Km^app

Structure (SMILES): OCCSSCCO [HED, bis(2-hydroxyethyl)disulfide]
- Km: 390 ± 110 µM

Reference: publication PMC10808970, “Chloroplasts lacking class I glutaredoxins are functional but show a delayed recovery of protein cysteinyl redox state after oxidative challenge” (Redox Biology, 2023)
